Results published in patent US11001615B2, “Mutated tau protein fragment and use thereof” (ADEL INC., priority 2016, dated 2021).
“Also recorded” adds a separate entry of the source. Ends that are not written are not given here.

Tests used:
Format in all cases: in vivo
Tau-P301L dementia mice [1] = test: ELISA using plasma: antibody production against modified tau protein fragments; details: ELISA using plasma after final administration; fragment with KLH and aluminum adjuvant, IP
Experimental: (§1) JNPL3 mice expressing Tau-P301L mutant gene were purchased from Taconic, and back-crossed with C57bl/6 mice for five generations in the experimental animal room of the Asan Institute for Life Sciences. Then, the mice were raised under a specific pathogen free (SPE) condition. For active immunization, the mice were administered, for six months starting from three months after birth at intervals of two weeks, two weeks, four weeks, four weeks, five weeks, four weeks, and one week in this order, the four modified tau protein fragments prepared in Preparation Example 1 together with keyhole limpet hemocyanin (KLH) as a carrier and an aluminum adjuvant. At this time, administration was carried out through intraperitoneal injection (IP injection). The dementia mice which were actively immunized by administration of the K280-ac fragment were designated as Tau-P301L-K280-ac.
In order to identify whether antibodies against the four modified tau protein fragments prepared in Preparation Example 1 were produced, the respective modified tau protein fragments or the full-length tau protein was finally administered, and then ELISA was performed using plasma.

Tau-P301L dementia mice [2] = test: Western blotting of brain tissues for GCP-II; details: brain tissue
Experimental: as §1
Glutamate carboxypeptidase-2 ([…], folate hydrolase 1) is a NAAG peptidase that degrades NAAG. There is a possibility that an increase in GCP-II is a cause for decreased NAAG. Thus, brain tissues of the Tau-P301L-K280-ac dementia mice, the P301L-K280-ac dementia mice, and the normal mice produced in Preparation Example 2 were extracted and western blotting was performed.

Tau-P301L dementia mice [3] = test: Western blotting of brain tissues for synapse-related proteins; details: brain tissue
Experimental: as §1
In order to identify a synapse-improving effect following administration of the K280-ac fragment, brain tissues of the Tau-P301L-K280-ac dementia mice, the P301L-K280-ac dementia mice, and the normal mice produced in Preparation Example 2 were extracted, and western blotting was performed.

Tau-P301L dementia mice [4] = test: Rota-rod test; details: 5th day
Experimental: as §1, with “Tau-P301L-K280-ac. […]” for “Tau-P301L-K280-ac.”
Specifically, the test was intended to measure how long the mice are able to stay on a rotating rotor. The mice were trained for 4 days and a motor ability thereof was measured on the 5th day. The training was repeated three times a day, during which the time to stay on the rotor and the final rpm were measured while increasing the rpm of the rotor. On the 5th day, the experiment was conducted under the same condition except that a result was measured only once without repeating (FIGS. 14 and 15).

Tau-P301L dementia mice [5] = test: Nest building test; details: Tau-P301L about 50% decrease versus normal mice
Experimental: as §1
Behavioral experiments were conducted to identify changes in motor ability and cognitive function of the Tau-P301L dementia mice produced in Preparation Example 2. A nest building test which can identify a multimodal brain function of the mice was performed.
Specifically, two-thirds of the litter in a cage where the mice are raised was removed and four layers of sterile cotton (5 cm×5 cm) were placed in the cage. One mouse was allowed to enter one cage. The next morning, a degree of completion of the nest was analyzed.

Tau-P301L dementia mice [6] = test: Antibody distribution in brain tissue (immunohistochemical staining and western blotting for mouse immunoglobulin-G); details: after cardiac perfusion
Experimental: as §1
In order to identify antibodies in brain tissues of the Tau-P301L-K280-ac dementia mice, the P301L-K280-ac dementia mice, and the normal mice produced in Preparation Example 2, cardiac perfusion was performed with cold physiological saline. Then, the brain tissues were extracted, and immunohistochemical staining and western blotting were performed for mouse immunoglobulin-G.

Tau-P301L dementia mice [7] = test: Memory tests and motor ability tests after active immunization (overall comparison); details: comparison of the four modified tau protein fragments
Excerpt: Tau-P301L dementia mice were actively immunized by administration of the four modified tau protein fragments prepared in Preparation Example 1. Then, the Tau-P301L dementia mice were subjected to memory tests such as fear conditioning test and Morris water maze test, motor ability tests such as grip strength test and vertical test, and the like, so that improved effects obtained by the respective modified tau protein fragments were compared.
as §1

Tau-P301L dementia mice [8] = test: Water maze test; details: 5th day, platform removed; normal mice about 3, Tau-P301L about 1
Experimental: as §1
An underwater maze test was performed to evaluate a learning and memory ability of the mice. […] Specifically, the underwater maze test took a total of 5 days. The mice were trained for 4 days in a state where a platform and a visual cue for the platform location are placed.
The learning was conducted by filling a swimming pool (1.4 m in diameter, 45 cm in depth) having a platform with water (29±0.5° C.) to a depth of about 26.5 cm, and then 1.5 L of whole milk powder was added to make water cloudy so that the mice can remember the platform with the cue only. Then, the mice were adapted to freely swim for 60 seconds and allowed to rest on the platform for 1 minute. The experiment was performed over a total of 12 times with 4 sets at three different starting positions. At the end of each test, 30 seconds of break time was given. At the end of one set, 30 to 45 minutes of break time was given.
After 4 days of learning, the test was performed on the 5th day. In the experiment for evaluation, the platform was not placed, and the number of staying in the area where the platform has been placed was measured in order to identify whether the mice visit well the platform location using the cue only. The test time was set for the mice to arrive at the location where the platform had been placed within one minute. If the mice fail to arrive at the platform location within one minute, the mice were removed out of the swimming pool.

Tau-P301L dementia mice [9] = test: Y-maze experiment; details: Tau-P301L 50% decrease in measurement time versus normal mice
Experimental: as §1
In addition, a Y-maze experiment was performed to identify restoration of cognitive function. Specifically, A, B, and C zones were set in a Y-shaped box, and the mice were allowed to freely move for 5 minutes in a state where the B zone was blocked.

Substance: Val-Gln-Ile-Ile-Asn-Lys-Lys-Leu-Asp-Leu-Ser-Asn (VQIINK(Ac)KLDLSN) [K280-ac]
- antibodies against the fragment produced (Tau-P301L dementia mice [1]): well produced
- expression level of GCP-II (Tau-P301L dementia mice [2]): decreased expression level of GCP-II which corresponds to that in the normal mice
- expression level of synapse-related proteins such as PSD95, NMDA receptor, synaptophysin, and synapsin-1 (Tau-P301L dementia mice [3]): restored to that in the normal mice
- rota-rod rpm (Tau-P301L dementia mice [4]): increased to levels which correspond to those for the normal mice
- rota-rod time (Tau-P301L dementia mice [4]): increased to levels which correspond to those for the normal mice
- building score (Tau-P301L dementia mice [5]): restored to a level which is similar to that in the normal mice
- antibodies in brain tissues (Tau-P301L dementia mice [6]): antibodies are present
- improved effect in memory and motor ability tests (Tau-P301L dementia mice [7]): improved effect at a level similar to that in normal mice; also recorded: restores a motor ability and a cognitive function
- number of arrivals (Tau-P301L dementia mice [8]): about 3 times
- cognitive function in the Y-maze (Tau-P301L dementia mice [9]): restored
